Measured values as given in patent publication US12509421B2, “Preparation and application of deuterated 4-phenyl-4-piperidinols” (priority 2022, dated 2025).
Counter-ions that a name gives are not always drawn.

Assays:
[1] = Metabolic stability in liver microsomes, mouse; settings: for half-life at 2 μM / microsomal CLint at 2 μM: mouse, microsomes, pH 7.4
Protocol: The solution B is slowly dropped into solution A, and the pH is adjusted to 7.40±0.05.
• Control drug: 4 μL Verapamil solution (10 mM) is added with 96 μL DMSO and diluted to 400 μM; • Compound to be tested: 4 μL compound to be tested (10 mM) is added with 96 μL normal saline and diluted to 400 μM.
The microsomes are stored in the refrigerator at −80° C., thawed at room temperature after being taken out, and mixed gently.
[…] PBS (100 mm, pH=7.4) solution is added to the negative sample. The solution is put into water bath at 37° C. and pre-incubated for 10 minutes; • B) After incubation, 2 μL reference drug or compound to be tested (400 μM) are added into each well to start the reaction.

ICR mice = experiment: Evaluation of side effects of constipation (defecation time, number, weight); format: in vivo; settings: for Number of defecating animals: 10 mice per group; for Number of defecating animals / Fecal weight: within 5 hours; for Defecation time: first black stool; for Defecation time / water content of feces / Fecal weight: x ± SE; for Defecation time / water content of feces: only animals that defecate within 5 hours
Protocol: Constipation side effect is a common side effect of opioid drugs. This patent evaluates the possibility of constipation side effect by the influence of the compound on defecation time, defecation quantity and defecation weight of experimental animals.
ICR mice are randomly divided into 6 groups with 10 mice in each group after adaptive feeding. Fasting for 16-24 h, without stopping drinking, the blank control group is given solvent, during which the normal diet is: (1) the blank control group; (2) Compound diphenoxylate (7.5 mg/kg) group; (3) Low dose (1 mg/kg) group; (4) High dose (5 mg/kg) group of the compound to be tested.
After administration for 30 minutes, the mice in each group are given Chinese ink by gavage. After administration, the mice are kept in a single cage, and the excretion time of the first black stool is recorded. The number and weight (wet weight) of defecation particles in each mouse within 5 hours after administration are recorded. each group of mice are placed in an IVC cage with clean filter paper. The feces of each mouse are collected, put into a sterile 1.5 ml EP tube and stored in an ice box. During the collection, the number of defecation particles of each mouse is recorded, and the wet weight is weighed. After the collected feces are dried, the dry weight of the feces is recorded. Drying conditions: put fresh feces in an oven and bake at 100° C. for 5-10 minutes until the dry weight of feces is constant. The following formula is used to calculate the water content of feces, and the water content of feces (%)=(wet feces mass−dry feces mass)/wet feces mass×100%.
The data required for measurement and observation in this experiment are recorded in the corresponding table. All data are statistically processed by Microsoft Excel, and expressed as “mean standard error”. The data of each group are statistically analyzed by SPSS software package.

CYP 2C9 = CYP 2C9 (Homo sapiens, UniProt P11712); experiment: Inhibition of cytochrome P450 enzyme in human liver microsomes, CYP 2C9
CYP 2C9, sequence (P11712 whole entry): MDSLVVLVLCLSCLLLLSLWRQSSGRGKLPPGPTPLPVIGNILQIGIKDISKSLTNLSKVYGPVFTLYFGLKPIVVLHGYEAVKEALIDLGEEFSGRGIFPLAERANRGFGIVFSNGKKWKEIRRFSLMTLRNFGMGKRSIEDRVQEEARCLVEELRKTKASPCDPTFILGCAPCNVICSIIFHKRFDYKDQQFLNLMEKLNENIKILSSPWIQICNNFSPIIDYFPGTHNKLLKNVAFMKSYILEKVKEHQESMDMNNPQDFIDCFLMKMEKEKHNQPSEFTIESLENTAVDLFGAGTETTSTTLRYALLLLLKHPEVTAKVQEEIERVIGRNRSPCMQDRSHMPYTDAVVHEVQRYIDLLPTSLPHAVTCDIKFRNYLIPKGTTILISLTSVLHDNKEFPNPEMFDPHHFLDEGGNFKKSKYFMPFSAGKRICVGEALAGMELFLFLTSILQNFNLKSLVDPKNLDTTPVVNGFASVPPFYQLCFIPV

CYP 2D6 = CYP 2D6 (Homo sapiens, UniProt P10635); experiment: Inhibition of cytochrome P450 enzyme in human liver microsomes, CYP 2D6
CYP 2D6, sequence (P10635 whole entry): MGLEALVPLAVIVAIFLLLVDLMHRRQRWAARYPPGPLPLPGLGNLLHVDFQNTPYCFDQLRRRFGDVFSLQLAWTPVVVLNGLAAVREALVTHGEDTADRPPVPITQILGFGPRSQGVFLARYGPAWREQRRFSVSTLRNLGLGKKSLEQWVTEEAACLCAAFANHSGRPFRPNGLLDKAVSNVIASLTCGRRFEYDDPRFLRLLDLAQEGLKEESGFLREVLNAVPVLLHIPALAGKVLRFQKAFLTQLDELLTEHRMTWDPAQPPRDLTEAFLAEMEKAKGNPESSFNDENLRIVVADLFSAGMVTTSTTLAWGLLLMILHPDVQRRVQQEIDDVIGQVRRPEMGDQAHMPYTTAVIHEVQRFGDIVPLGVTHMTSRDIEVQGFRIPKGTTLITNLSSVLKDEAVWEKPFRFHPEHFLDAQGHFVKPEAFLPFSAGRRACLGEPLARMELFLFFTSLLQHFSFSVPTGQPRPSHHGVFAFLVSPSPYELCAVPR

CYP 1A2 = target: T1, CYP 1A2 (Homo sapiens, UniProt P05177); experiment: Inhibition of cytochrome P450 enzyme in human liver microsomes, CYP 1A2
T1 sequence (P05177 1-516): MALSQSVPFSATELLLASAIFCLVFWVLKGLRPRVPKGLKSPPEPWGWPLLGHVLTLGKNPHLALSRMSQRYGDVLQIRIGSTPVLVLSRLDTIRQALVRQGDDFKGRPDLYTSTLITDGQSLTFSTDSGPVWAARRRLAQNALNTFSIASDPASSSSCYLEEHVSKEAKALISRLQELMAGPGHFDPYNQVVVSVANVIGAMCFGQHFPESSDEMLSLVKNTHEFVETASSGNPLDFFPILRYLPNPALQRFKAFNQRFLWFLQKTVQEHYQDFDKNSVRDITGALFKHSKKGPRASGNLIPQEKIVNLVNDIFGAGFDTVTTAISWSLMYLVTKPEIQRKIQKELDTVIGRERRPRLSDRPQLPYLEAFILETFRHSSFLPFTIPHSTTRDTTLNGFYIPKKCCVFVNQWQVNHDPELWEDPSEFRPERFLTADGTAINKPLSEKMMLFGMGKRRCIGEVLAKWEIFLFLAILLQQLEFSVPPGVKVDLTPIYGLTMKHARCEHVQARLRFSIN

[2] = Mouse liver microsomes 0.5 mg/mL, NADPH 1 mM, compound 2 μM

SMILES	CLint [1, 2] [μL/min/mg protein]	t1/2 [1, 2] [min]	Number of defecating animals (ICR mice; 1 mg/kg)	Defecation time (ICR mice; 1 mg/kg) [min]	water content of feces (ICR mice; 1 mg/kg) [%]	Fecal weight (ICR mice; 1 mg/kg) [g]	Number of defecating animals (ICR mice; 5 mg/kg, hydrochloride)	Number of defecating animals (ICR mice; 5 mg/kg, listed as Example 20 in patent CN201911076305.X, hydrochloride)	water content of feces (ICR mice; 5 mg/kg) [%]	Fecal weight (ICR mice; 5 mg/kg) [g]	constipation in experimental animals (ICR mice; comparative experiments of the inventor)	IC50 (CYP 2C9) [µM]	half-life at 2 μM [1] [min]	microsomal CLint at 2 μM [1] [µL/min/mg]	IC50 (CYP 2D6) [µM]	Number of defecating animals (ICR mice; 5 mg/kg)	Defecation time (ICR mice; 5 mg/kg) [min]	IC50 (CYP 1A2) [µM]
COc1cccc([C@]2(O)CCN(S(=O)(=O)Cc3ccccc3)C[C@H]2CN(C)C)c1.Cl [Example 20 of CN201911076305.X, reference compound]	1101.92	1.26	9	281 ± 4	19.6 ± 4.5	0.1243 ± 0.0153	0	did not defecate	0	0	can cause constipation in experimental animals in a dose-dependent manner							
[2H]C([2H])([2H])N(C)C[C@@H]1CN(S(=O)(=O)Cc2ccccc2)CC[C@@]1(O)c1cccc(OC)c1 [II-1hydrochloride]			9	105.9 ± 10.5	43.5 ± 2.6	0.3682 ± 0.0816			38.2 ± 8.6	0.0586 ± 0.0065		> 50	5.19	659	13	3	202.4 ± 6.2	> 50
[2H]C([2H])([2H])N(C[C@@H]1CN(S(=O)(=O)Cc2ccccc2)CC[C@@]1(O)c1cccc(OC)c1)C([2H])([2H])[2H] [II-3hydrochloride]			8	152.8 ± 4.1	43.0 ± 2.1	0.3396 ± 0.0965			37.8 ± 8.9	0.0482 ± 0.0053		> 50	5.24	660	13.8	2	243.6 ± 10.5	> 50
[2H]C([2H])([2H])Oc1cccc([C@]2(O)CCN(S(=O)(=O)Cc3ccccc3)C[C@H]2CN(C([2H])([2H])[2H])C([2H])([2H])[2H])c1 [II-5hydrochloride]			8	160.1 ± 9.9	42.7 ± 1.9	0.3389 ± 0.0902			37.6 ± 8.6	0.0478 ± 0.0061		> 50	6.05	706	15.3	2	202.8 ± 4.2	> 50
[2H]C([2H])([2H])N(C)C[C@@H]1CN(C(=O)Cc2cc(F)c(F)cc2F)CC[C@@]1(O)c1cccc(OC)c1 [II-7hydrochloride, 1-((3R,4S)-4-hydroxy-4-(3-methoxyphenyl)-3-(((methyl-d3)amino)methyl)-1-piperidinyl)-2(2,4,5-trifluorophenyl)ethyl-1-one]			9	109.0 ± 8.8	44.8 ± 3.2	0.3846 ± 0.0798			38.6 ± 7.9	0.0612 ± 0.0079		> 50	5.15	661	14.7	3	200.6 ± 7.9	> 50
[2H]C([2H])([2H])N(C[C@@H]1CN(C(=O)Cc2cc(F)c(F)cc2F)CC[C@@]1(O)c1cccc(OC)c1)C([2H])([2H])[2H] [II-9hydrochloride]			8	182.6 ± 10.2	43.2 ± 2.5	0.3399 ± 0.0983			37.9 ± 8.9	0.0489 ± 0.0073		> 50	5.03	612	13.7	2	242.9 ± 11.9	> 50
[2H]C([2H])([2H])Oc1cccc([C@]2(O)CCN(C(=O)Cc3cc(F)c(F)cc3F)C[C@H]2CN(C([2H])([2H])[2H])C([2H])([2H])[2H])c1 [II-11hydrochloride]			8	190.3 ± 12.7	43.5 ± 2.8	0.3402 ± 0.0828			38.2 ± 9.5	0.0496 ± 0.0067		> 50	6.01	700	12.8	2	265.9 ± 13.1	> 50
